Experimental data published in patent publication US7842808B2, “Anti-migraine spirocycles” (Bristol-Myers Squibb Company, priority 2002, dated 2010).

These compounds were tested against T1, CGRP receptor (SK-N-MC cell membranes) (Homo sapiens, UniProt O60894+Q16602) (assay: CGRP Binding Assay ([125I]-CGRP radioligand binding, SK-N-MC homogenate)). Settings: displacement of [125I]-CGRP, SK-N-MC homogenate; read-out: CGRP binding IC50.
T1 construct: endogenous in cells; host or cells: SK-N-MC cells (membrane homogenate)
Procedure: Tissue Culture. SK-N-MC cells were grown at 37° C. in 5% CO2 as a monolayer in medium consisting of MEM with Earle's salts and L-glutamine (Gibco) supplemented with 10% fetal bovine serum (Gibco).
Cell Pellets. […] The cells were transferred from plates to polypropylene tubes (16×100 mm) and homogenized using a polytron. Homogenates were centrifuged at 32,000×g for 30 min. The pellets were resuspended in cold hypotonic lysis buffer with 0.1% mammalian protease inhibitor cocktail (Sigma) and assayed for protein concentration. The SK-N-MC homogenate was then aliquoted and stored at −80° C. until needed.
Radioligand Binding Assay. The compounds of invention were solubilized and carried through serial dilutions using 100% DMSO. Aliquots from the compound serial dilutions were further diluted 25 fold into assay buffer (50 mM Tris-Cl pH 7.5, 5 mM MgCl2, 0.005% Triton X-100) and transferred (volume 50 μl) into 96 well assay plates. […] SK-N-MC pellets were thawed, diluted in assay buffer with fresh 0.1% mammalian protease inhibitor cocktail (Sigma), and homogenized again. SK-N-MC homogenate (5 μg/well) was added in a volume of 100 μl. The assay plates were then incubated at room temperature for 2 h. Assays were stopped by addition of excess cold wash buffer (20 mM Tris-Cl pH 7.5, 0.1% BSA) immediately followed by filtration over glass fiber filters (Whatman GF/B) previously soaked in 0.5% PEI. Non-specific binding was defined with 1 μM beta-CGRP. Protein bound radioactivity was determined using a gamma or scintillation counter.

T1 sequence (Q16602 23-461): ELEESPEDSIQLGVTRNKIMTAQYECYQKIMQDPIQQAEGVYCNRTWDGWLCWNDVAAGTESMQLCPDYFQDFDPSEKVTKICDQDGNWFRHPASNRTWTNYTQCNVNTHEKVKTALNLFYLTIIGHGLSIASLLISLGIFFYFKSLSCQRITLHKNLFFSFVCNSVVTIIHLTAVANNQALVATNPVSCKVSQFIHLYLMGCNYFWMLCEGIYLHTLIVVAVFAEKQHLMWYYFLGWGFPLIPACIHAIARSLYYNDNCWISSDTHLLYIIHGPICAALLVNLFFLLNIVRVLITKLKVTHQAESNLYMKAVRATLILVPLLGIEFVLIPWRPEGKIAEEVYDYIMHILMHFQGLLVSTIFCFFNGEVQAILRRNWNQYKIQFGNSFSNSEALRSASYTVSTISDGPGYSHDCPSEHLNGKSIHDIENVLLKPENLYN
T1 sequence (O60894 27-148): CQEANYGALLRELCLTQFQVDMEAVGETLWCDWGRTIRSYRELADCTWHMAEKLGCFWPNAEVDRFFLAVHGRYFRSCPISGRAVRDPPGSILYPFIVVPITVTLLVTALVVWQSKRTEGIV

`O=C(O)C(Cc1ccc2[nH]ncc2c1)NC(=O)N1CCC(N2Cc3ccccc3NC2=O)CC1` (racemic) [Example 1, (±)-3-(1H-Indazol-5-yl)-2-{[4-(2-oxo-1,4-dihydro-2H-quinazolin-3-yl)-piperidine-1-carbonyl]-amino}-propionic acid] and `COC(=O)C(Cc1cc(Cl)c2[nH]ncc2c1)NC(=O)N1CCC(N2Cc3ccccc3NC2=O)CC1` (racemic) [Example 42, (±)-3-(7-Chloro-1H-indazol-5-yl)-2-{[4-(2-oxo-1,4-dihydro-2H-quinazolin-3-yl)-piperidine-1-carbonyl]-amino}-propionic acid methyl ester] fall in the same range of IC50: 100 to 1000 nM for the first, 100 to 1000 nM for the second.

Compared with `Cc1cc(CC(NC(=O)N2CCC3(CC2)OC(=O)Nc2ccccc23)C(=O)NC2C3CC4CC(C3)CC2C4)cc2cn[nH]c12` (racemic) [Example 28, (±)-[1-(2-adamantyl-carbamoyl)-2-(7-methyl-1H-indazol-5-yl)-ethyl]-1′,2′-dihydro-2′-oxospiro-[4H-3′,1-benzoxazine-4,4′-piperidine]-1-carboxamide], `Cc1cc(CC(NC(=O)N2CCC3(CC2)OC(=O)Nc2ccccc23)C(=O)NCc2ccncc2)cc2cn[nH]c12` (racemic) [Example 30, (±)-1′,2′-Dihydro-2′-oxospiro-[4H-3′,1-benzoxazine-4,4′-piperidine-1-carboxylic acid {2-(7-methyl-1H-indazol-5-yl)-1-[(pyridin-4-ylmethyl)-carbamoyl]-ethyl}-amide] is lower in IC50: 100 to 1000 nM for the first, 10 to 100 nM for the second. The second is the more potent here.

Compared with `Cc1cc(CC(NC(=O)N2CCC3(CC2)OC(=O)Nc2ccccc23)C(=O)N2CCN(c3ccncc3)CC2)cc2cn[nH]c12` (racemic) [Example 29, (±)-1′,2′-Dihydro-2′-oxospiro-[4H-3′,1-benzoxazine-4,4′-piperidine-1-carboxylic acid[1-(7-methyl-1H-indazol-5-ylmethyl)-2-oxo-2-(4-pyridin-4-yl-piperazin-1-yl)-ethyl]-amide], `Cc1cc(CC(NC(=O)N2CCC3(CC2)CC(=O)Nc2ccccc23)C(=O)N2CCCCC2)cc2cn[nH]c12` (racemic) [Example 32, (±)-1-(7-Methyl-1H-indazol-5-ylmethyl)-2-[1-piperidinyl]-2-oxoethyl]3′,4′-dihydro-2′-oxospiro-[piperidine-4,4′-(1H)-quinoline]-1-carboxamide] is higher in IC50: less than 10 nM for the first, 100 to 1000 nM for the second.

`Cc1cc(CC(NC(=O)N2CCC3(CC2)CC(=O)Nc2ccccc23)C(=O)N(C)C)cc2cn[nH]c12` (racemic) [Example 33, (±)-[1-Dimethylcarbmoyl-2-(7-methyl-1H-indazol-5-yl)-ethy]1-3′,4′-dihydro-2′-oxospiro-[piperidine-4,4′-(1H)-quinoline]-1-carboxamide] and `CCc1cc(CC(NC(=O)N2CCC(N3Cc4ccccc4NC3=O)CC2)C(=O)OC)cc2cn[nH]c12` (racemic) [Example 44, (±)-3-(7-Ethyl-1H-indazol-5-yl)-2-{[4-(2-oxo-1,4-dihydro-2H-quinazolin-3-yl)-piperidine-1-carbonyl]-amino}-propionic acid methyl ester] fall in the same range of IC50: 100 to 1000 nM for the first, 100 to 1000 nM for the second.

`O=C(NC(Cn1ccc(OCc2ccccc2)cc1=O)C(=O)N1CCC(N2CCCCC2)CC1)N1CCC(N2Cc3ccccc3NC2=O)CC1` (racemic) [Example 51, (±)-4-(2-Oxo-1,4-dihydro-2H-quinazolin-3-yl)-piperidine-1-carboxylic acid[1-(4-benzyloxy-2-oxo-2H pyridin-1-ylmethyl)-2-[1,4′]bipiperidinyl-1′-yl-2-oxo-ethyl]-amide] and `O=C(NC(Cn1ccc(O)cc1=O)C(=O)N1CCC(N2CCCCC2)CC1)N1CCC(N2Cc3ccccc3NC2=O)CC1` (racemic) [Example 52, (±)-4-(2-Oxo-1,4-dihydro-2H-quinazolin-3-yl)-piperidine-1-carboxylic acid[2-[1,4′]bipiperidinyl-1′-yl-1-(4-hydroxy-2-oxo-2H-pyridin-1-ylmethyl)-2-oxo-ethyl]-amide] cannot be ordered by IC50: greater than 1000 nM for the first, greater than 1000 nM for the second.
